Experiments:
[1] = biological target: full-length human RORγt (GAL4-DBD-RORγt fusion) in HEK293T cells (Homo sapiens (Human), UniProt P51449); test: RORγt (full-length human) reporter assay, conditions A or B; format: cell-based; details: for IC50: HEK293T cells, read-out: RORγt (FL) Reporter Assay A or B, IC50; for inhibition at 3 µM / inhibition at 1 µM: HEK-293T, read-out: RORγt (FL) Reporter Assay A or B, % inhibition; for inhibition at 3 µM: 3 μM compound concentration (footnote *); for inhibition at 1 µM: 1 μM compound concentration (footnote ***)
Protocol: RORγt (Full-Length Human) Reporter Assay:
(§1) HEK293T cells were plated at 35,000 per well in 96-well plate in medium of DMEM with 10% FBS. […] After overnight (16 to 20 hours) incubation, media were removed and cells were lysed with 50 μL Glo Lysis Buffer (Promega) for 10-15 minutes followed by 10 minute incubation with 50 μL Dual Glo reagent (Promega) at room temperature. Firefly luciferase luminescence was measured using a BMG Pherastar plate reader. To each well, 50 μL Stop and Glo reagent was added and incubated for 10 minutes at room temperature. Renilla luminescence was measured using a BMG Pherastar plate reader. To calculate the effect of compounds on RORγt activity, firefly values were normalized against values of DMSO only and values of reference compound at saturating concentration, then further normalized against Renilla signals. IC50s were generated by plotting final Renilla normalized data against compound concentration and percent inhibition was calculated against DMSO control.
as §1, with “at 8750 cells” for “at 35,000”, “in 384-well” for “in 96-well”, “with 20” for “with 50”, “well, 20” for “well, 50”

[2] = biological target: human RORγt ligand binding domain (RORγt LBD) (Homo sapiens (Human), UniProt P51449); test: RORγt ThermoFluor assay
Text: ThermoFluor® is a fluorescence based assay that estimates ligand binding affinities by measuring the effect of a ligand on protein thermal stability (Pantoliano, M. W., Petrella, E. C., Kwasnoski, J. D., Lobanov, V. S., Myslik, J., Graf, E., Carver, T., Asel, E., Springer, B. A., Lane, P., and Salemme, F. R. (2001) High-density miniaturized thermal shift assays as a general strategy for drug discovery. J Biomol Screen 6, 429-40, and Matulis, D., Kranz, J. K., Salemme, F. R., and Todd, M. J. (2005) Thermodynamic stability of carbonic anhydrase: measurements of binding affinity and stoichiometry using ThermoFluor. Biochemistry 44, 5258-66). This approach is applicable to a wide variety of systems, and rigorous in theoretical interpretation through quantitation of equilibrium binding constants (KD).
The shift in the melting point described as a ΔTm is proportional to the concentration and affinity of the ligand. The compound potency may be compared as a rank order of either values at a single compound concentration or in terms of KD values, estimated from concentration response curves.
RORγt ThermoFluor® Assay Construct
For the RORγt construct used in the ThermoFluor® assay, numbering for the nucleotide sequences was based on the reference sequence for human RORγt, transcript variant 2, NCBI Accession: NM 001001523.1 (SEQ ID NO:1). Nucleotides 850-1635 (SEQ ID NO:2) coding for the wild type human RORγt ligand binding domain (RORγt LBD) were cloned into the pHIS1 vector, a modified pET E. coli expression vector (Accelagen, San Diego), containing an in-frame N-terminal His-tag and a TurboTEV protease cleavage site (ENLYFQG, SEQ ID NO:3) upstream of the cloned insert sequence. The amino acid sequence for the RORγt construct used in the Thermofluor® assay is shown as SEQ ID NO:4.
ThermoFluor® experiments were carried out using instruments owned by Janssen Research and Development, L.L.C. through its acquisition of 3-Dimensional Pharmaceuticals, Inc. 1,8-ANS (Invitrogen) was used as a fluorescent dye. Protein and compound solutions are dispensed into black 384-well polypropylene PCR microplates (Abgene) and overlayed with silicone oil (1 μL, Fluka, type DC 200) to prevent evaporation.
Bar-coded assay plates are robotically loaded onto a thermostatically controlled PCR-type thermal block and then heated at a typical ramp-rate of 1° C./min for all experiments. Fluorescence was measured by continuous illumination with UV light (Hamamatsu LC6) supplied via fiber optic and filtered through a band-pass filter (380-400 nm; >6 OD cutoff). Fluorescence emission of the entire 384-well plate was detected by measuring light intensity using a CCD camera (Sensys, Roper Scientific) filtered to detect 500±25 nm, resulting in simultaneous and independent readings of all 384 wells. Images were collected at each temperature, and the sum of the pixel intensity in a given area of the assay plate was recorded versus temperature. Reference wells contained RORγt without compounds, and the assay conditions were as follows:
Project compounds were arranged in a pre-dosed mother plate (Greiner Bio-one) wherein compounds are serially diluted in 100% DMSO by 1:2 from a high concentration of 10 mM over 12 columns within a series (column 12 is a reference well containing DMSO, no compound). The compounds were robotically dispensed directly into assay plates (1×=46 nL) using a Hummingbird capillary liquid handling instrument (Digilab). Following compound dispense, protein and dye in buffer was added to achieve the final assay volume of 3 μL, followed by 1 μL of silicone oil.
The binding affinity was estimated as described previously (Matulis, D., Kranz, J. K., Salemme, F. R., and Todd, M. J. (2005) Thermodynamic stability of carbonic anhydrase: measurements of binding affinity and stoichiometry using ThermoFluor®. Biochemistry 44, 5258-66) using the following thermodynamic parameters of protein unfolding:
Reference RORγt Tm: 47.8° C.

Chain of human RORγt ligand binding domain (RORγt LBD) (P51449 other isoform, or with tags, fused parts or gaps): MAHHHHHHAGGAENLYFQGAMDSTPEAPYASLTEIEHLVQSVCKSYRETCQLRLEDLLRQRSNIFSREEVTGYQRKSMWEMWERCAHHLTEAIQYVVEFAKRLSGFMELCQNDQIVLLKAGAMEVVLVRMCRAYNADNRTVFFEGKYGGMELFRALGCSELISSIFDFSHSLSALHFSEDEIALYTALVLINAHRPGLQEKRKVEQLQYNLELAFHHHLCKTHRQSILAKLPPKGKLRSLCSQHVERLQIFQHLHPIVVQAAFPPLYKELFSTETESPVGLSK
Chain of full-length human RORγt (GAL4-DBD-RORγt fusion) in HEK293T cells (P51449 other isoform, or with tags, fused parts or gaps): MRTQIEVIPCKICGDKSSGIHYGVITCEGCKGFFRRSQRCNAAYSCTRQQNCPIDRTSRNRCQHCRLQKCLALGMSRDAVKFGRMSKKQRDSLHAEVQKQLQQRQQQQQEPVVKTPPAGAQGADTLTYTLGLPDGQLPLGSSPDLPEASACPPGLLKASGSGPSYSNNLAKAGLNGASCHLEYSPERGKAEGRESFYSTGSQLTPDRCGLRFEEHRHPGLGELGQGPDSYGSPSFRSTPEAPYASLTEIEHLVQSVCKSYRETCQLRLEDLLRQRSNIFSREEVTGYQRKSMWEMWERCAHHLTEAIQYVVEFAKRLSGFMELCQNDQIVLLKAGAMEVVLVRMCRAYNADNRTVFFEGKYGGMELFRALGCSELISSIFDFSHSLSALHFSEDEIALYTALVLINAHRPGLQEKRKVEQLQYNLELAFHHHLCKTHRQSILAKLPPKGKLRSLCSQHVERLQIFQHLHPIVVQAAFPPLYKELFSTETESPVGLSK

| IC50 [1] [µM] | inhibition at 3 µM [1] [%] | Kd [2] [µM] | inhibition at 1 µM [1] [%] | Compound |
| --- | --- | --- | --- | --- |
| 0.029 | 110 | 0.0043 | – | CCn1nc(C(=O)NC[C@H]2CC[C@H](S(N)(=O)=O)CC2)c(C)c1-c1cnc(CC(C)(C)C(F)(F)F)cc1OC(F)F [Example 12, 5-(4-(Difluoromethoxy)-6-(3,3,3-trifluoro-2,2-dimethylpropyl)pyridin-3-yl)-1-ethyl-4-methyl-N-(((1r,4r)-4-sulfamoylcyclohexyl)methyl)-1H-pyrazole-3-carboxamide] |
| 0.015 | 100 | 0.0025 | – | CCn1nc(C(=O)NC[C@H]2CC[C@H](S(C)(=O)=O)CC2)c(C)c1-c1cnc(CC(C(F)(F)F)C(F)(F)F)cc1OC(F)F [Example 23, 5-(4-(Difluoromethoxy)-6-(3,3,3-trifluoro-2-(trifluoromethyl)propyl)pyridin-3-yl)-1-ethyl-4-methyl-N-(((1r,4r)-4-(methylsulfonyl)cyclohexyl)methyl)-1H-pyrazole-3-carboxamide] |
| 0.34 | 94 | 0.015 | – | CCn1nc(C(=O)NC[C@H]2CC[C@H](S(C)(=O)=O)CC2)c(Cl)c1-c1cnc(CC(C)(C)C(F)(F)F)cc1C(C)C [Example 25] |

Continued, molecule first:

| Compound | IC50 [1] [µM] | inhibition at 3 µM [1] [%] | Kd [2] [µM] | inhibition at 1 µM [1] [%] |
| --- | --- | --- | --- | --- |
| CCn1nc(C(=O)NC[C@H]2CC[C@H](S(N)(=O)=O)CC2)c(Cl)c1-c1cnc(CC(C)(C)C(F)(F)F)cc1OC(F)F [Example 11, 4-chloro-5-(4-(difluoromethoxy)-6-(3,3,3-trifluoro-2,2-dimethylpropyl)pyridin-3-yl)-1-ethyl-N-(((1r,4r)-4-sulfamoylcyclohexyl)methyl)-1H-pyrazole-3-carboxamide] | 0.023 | 108 | 0.0014 | – |
| CCn1nc(C(=O)NC[C@H]2CC[C@H](S(C)(=O)=O)CC2)c(Cl)c1-c1cnc(CC(C(F)(F)F)C(F)(F)F)cc1OC(F)F [Example 21, 4-Chloro-5-(4-(difluoromethoxy)-6-(3,3,3-trifluoro-2-(trifluoromethyl)propyl)pyridin-3-yl)-1-ethyl-N-(((1r,4r)-4-(methylsulfonyl)cyclohexyl)methyl)-1H-pyrazole-3-carboxamide] | 0.02 | – | 0.0012 | 120 |
| CCn1nc(C(=O)NC[C@]2(O)CC[C@@H](S(C)(=O)=O)CC2)c(Cl)c1-c1cnc(CC(C(F)(F)F)C(F)(F)F)cc1OC(F)F [Example 22, 4-Chloro-5-(4-(difluoromethoxy)-6-(3,3,3-trifluoro-2-(trifluoromethyl)propyl)pyridin-3-yl)-1-ethyl-N-(((1s,4s)-1-hydroxy-4-(methylsulfonyl)cyclohexyl)methyl)-1H-pyrazole-3-carboxamide] | 0.046 | – | 0.0064 | 115 |
| CCn1nc(C(=O)NC[C@]2(O)CC[C@@H](S(C)(=O)=O)CC2)c(C)c1-c1cnc(CC(C(F)(F)F)C(F)(F)F)cc1OC(F)F [Example 24, 5-(4-(Difluoromethoxy)-6-(3,3,3-trifluoro-2-(trifluoromethyl)propyl)pyridin-3-yl)-1-ethyl-N-(((1s,4s)-1-hydroxy-4-(methylsulfonyl)cyclohexyl)methyl)-4-methyl-1H-pyrazole-3-carboxamide] | 0.063 | 113 | 0.0089 | – |
| CCn1nc(C(=O)NC[C@H]2CC[C@H](S(C)(=O)=O)CC2)c(Cl)c1-c1cnc(CC(C)(C)C(F)(F)F)cc1C(F)F [Example 26, 4-Chloro-5-(4-(difluoromethyl)-6-(3,3,3-trifluoro-2,2-dimethylpropyl)pyridin-3-yl)-1-ethyl-N-(((1r,4r)-4-(methylsulfonyl)cyclohexyl)methyl)-1H-pyrazole-3-carboxamide] | 0.014 | 88 | 0.017 | – |

Reference: patent US11034658B2, “Pyridinyl pyrazoles as modulators of RORγT” (Janssen Pharmaceutica NV, priority 2018, dated 2021)
